Measurements from ChEMBL document CHEMBL1201862, “PubChem BioAssay data set” (2004).
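Briefly, cells in 96-well plates were exposed to five compound concentrations for 48 h, and endpoints were estimated by linear interpolation. GI50: concentration for 50% inhibition of growth.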 Activity calls are given as the source filed them. No stated cut-off is given here; in the data, active = GI50 up to about 1.1 µM and inactive = higher.

What was measured:
Assay in all cases: NCI tumour cell line growth inhibition, 48 h
786-0 = test system: 786-0
A498 = test system: A498
A549 = test system: A549
ACHN = test system: ACHN
BT-549 = test system: BT-549
CAKI-1 = test system: CAKI-1
CCRF-CEM = test system: CCRF-CEM
COLO 205 = test system: COLO 205
DU-145 = test system: DU-145
EKVX = test system: EKVX
HCC 2998 = test system: HCC 2998
HCT-116 = test system: HCT-116
HCT-15 = test system: HCT-15
HL-60 = test system: HL-60
HOP-62 = test system: HOP-62
HOP-92 = test system: HOP-92
HT-29 = test system: HT-29
Hs-578T = test system: Hs-578T
IGROV-1 = test system: IGROV-1
K562 = test system: K562
KM12 = test system: KM12
LOX IMVI = test system: LOX IMVI
M14 = test system: M14
MCF7 = test system: MCF7
MDA-MB-231 = test system: MDA-MB-231
MDA-MB-435 = test system: MDA-MB-435
MDA-N = test system: MDA-N
MOLT-4 = test system: MOLT-4
Malme-3M = test system: Malme-3M
NCI-H226 = test system: NCI-H226
NCI-H23 = test system: NCI-H23
NCI-H522 = test system: NCI-H522
NCI/ADR-RES = test system: NCI/ADR-RES
OVCAR-3 = test system: OVCAR-3
OVCAR-5 = test system: OVCAR-5
OVCAR-8 = test system: OVCAR-8
PC-3 = test system: PC-3
RPMI-8226 = test system: RPMI-8226
RXF 393 = test system: RXF 393
SF-268 = test system: SF-268
SF-295 = test system: SF-295
SF-539 = test system: SF-539
SK-MEL-2 = test system: SK-MEL-2
SK-MEL-5 = test system: SK-MEL-5
SK-OV-3 = test system: SK-OV-3
SN12C = test system: SN12C
SNB-19 = test system: SNB-19
SNB-75 = test system: SNB-75
SW-620 = test system: SW-620
T47D = test system: T47D
TK-10 = test system: TK-10
U-251 = test system: U-251
UACC-257 = test system: UACC-257
UACC-62 = test system: UACC-62
UO-31 = test system: UO-31
NCI-H460 = test system: NCI-H460
OVCAR-4 = test system: OVCAR-4
SK-MEL-28 = test system: SK-MEL-28
SR = test system: SR

`O=c1cc(N2CCNCC2)nc2ccccn12` was tested, and the GI50 (786-0) was > 100 µM (inactive), the GI50 (A498) was > 100 µM (inactive) and the GI50 (A549) was > 100 µM (inactive). For the same molecule, the GI50 (ACHN) was > 100 µM (inactive), the GI50 (BT-549) was > 100 µM (inactive) and the GI50 (CAKI-1) was > 100 µM (inactive). For the same molecule, the GI50 (CCRF-CEM) was > 100 µM (inactive), the GI50 (COLO 205) was > 100 µM (inactive) and the GI50 (DU-145) was > 100 µM (inactive). The GI50 (EKVX) was > 100 µM (inactive), the GI50 (HCC 2998) was > 100 µM (inactive) and the GI50 (HCT-116) was > 100 µM (inactive). For the same molecule, the GI50 (HCT-15) was over 100 µM, the GI50 (HL-60) was > 100 µM (inactive) and the GI50 (HOP-62) was > 100 µM (inactive). For the same molecule, the GI50 (HOP-92) was > 100 µM (inactive), the GI50 (HT-29) was > 100 µM (inactive) and the GI50 (Hs-578T) was > 100 µM (inactive). The GI50 (IGROV-1) was > 100 µM (inactive), the GI50 (K562) was > 100 µM (inactive) and the GI50 (KM12) was > 100 µM (inactive). The GI50 (LOX IMVI) was > 100 µM (inactive), the GI50 (M14) was > 100 µM (inactive) and the GI50 (MCF7) was > 100 µM (inactive). For the same molecule, the GI50 (MDA-MB-231) was > 100 µM (inactive), the GI50 (MDA-MB-435) was > 100 µM (inactive) and the GI50 (MDA-N) was > 100 µM (inactive). The GI50 (MOLT-4) was > 100 µM (inactive), the GI50 (Malme-3M) was > 100 µM (inactive) and the GI50 (NCI-H226) was > 100 µM (inactive). For the same molecule, the GI50 (NCI-H23) was > 100 µM (inactive), the GI50 (NCI-H522) was > 100 µM (inactive) and the GI50 (NCI/ADR-RES) was > 100 µM (inactive). For the same molecule, the GI50 (OVCAR-3) was > 100 µM (inactive), the GI50 (OVCAR-5) was > 100 µM (inactive) and the GI50 (OVCAR-8) was > 100 µM (inactive). The GI50 (PC-3) was > 100 µM (inactive), the GI50 (RPMI-8226) was > 100 µM (inactive) and the GI50 (RXF 393) was > 100 µM (inactive). The GI50 (SF-268) was > 100 µM (inactive), the GI50 (SF-295) was > 100 µM (inactive) and the GI50 (SF-539) was > 100 µM (inactive). The GI50 (SK-MEL-2) was > 100 µM (inactive), the GI50 (SK-MEL-5) was > 100 µM (inactive) and the GI50 (SK-OV-3) was > 100 µM (inactive). For the same molecule, the GI50 (SN12C) was > 100 µM (inactive), the GI50 (SNB-19) was > 100 µM (inactive) and the GI50 (SNB-75) was > 100 µM (inactive). For the same molecule, the GI50 (SW-620) was > 100 µM (inactive), the GI50 (T47D) was > 100 µM (inactive) and the GI50 (TK-10) was > 100 µM (inactive). For the same molecule, the GI50 (U-251) was > 100 µM (inactive), the GI50 (UACC-257) was > 100 µM (inactive) and the GI50 (UACC-62) was > 100 µM (inactive). For the same molecule, the GI50 (UO-31) was > 100 µM (inactive).
With `COC(=O)c1ccc(/N=N/N(C)COc2ccc(C#N)cc2)cc1` the GI50 (786-0) was > 100 µM (inactive), the GI50 (A498) was > 100 µM (inactive) and the GI50 (A549) was 70 µM (inactive). The GI50 (ACHN) was 21.2 µM (inactive), the GI50 (BT-549) was > 100 µM (inactive) and the GI50 (CAKI-1) was 69 µM (inactive). The GI50 (CCRF-CEM) was 20.3 µM (inactive), the GI50 (COLO 205) was 61.2 µM (inactive) and the GI50 (DU-145) was 40.4 µM (inactive). The GI50 (EKVX) was > 100 µM (inactive), the GI50 (HCC 2998) was 62.1 µM (inactive) and the GI50 (HCT-116) was 79.4 µM (inactive). For the same molecule, the GI50 (HCT-15) was 22.4 µM, the GI50 (HL-60) was 16.6 µM (inactive) and the GI50 (HOP-62) was > 100 µM (inactive). For the same molecule, the GI50 (HOP-92) was 34.4 µM (inactive), the GI50 (HT-29) was > 100 µM (inactive) and the GI50 (Hs-578T) was 59.4 µM (inactive). The GI50 (IGROV-1) was > 100 µM (inactive), the GI50 (K562) was 35.2 µM (inactive) and the GI50 (KM12) was 70.8 µM (inactive). The GI50 (LOX IMVI) was 56.1 µM (inactive), the GI50 (M14) was > 100 µM (inactive) and the GI50 (MCF7) was > 100 µM (inactive). For the same molecule, the GI50 (MDA-MB-231) was > 100 µM (inactive), the GI50 (MDA-MB-435) was 40.4 µM (inactive) and the GI50 (MDA-N) was > 100 µM (inactive). The GI50 (MOLT-4) was 82.2 µM (inactive), the GI50 (Malme-3M) was > 100 µM (inactive) and the GI50 (NCI-H226) was > 100 µM (inactive). The GI50 (NCI-H23) was > 100 µM (inactive), the GI50 (NCI-H460) was 18.2 µM (inactive) and the GI50 (NCI-H522) was > 100 µM (inactive). For the same molecule, the GI50 (NCI/ADR-RES) was 67 µM (inactive), the GI50 (OVCAR-3) was > 100 µM (inactive) and the GI50 (OVCAR-4) was > 100 µM (inactive). The GI50 (OVCAR-5) was 61 µM (inactive), the GI50 (OVCAR-8) was > 100 µM (inactive) and the GI50 (PC-3) was > 100 µM (inactive). The GI50 (RPMI-8226) was > 100 µM (inactive), the GI50 (RXF 393) was 95.5 µM (inactive) and the GI50 (SF-268) was > 100 µM (inactive). For the same molecule, the GI50 (SF-295) was 44.8 µM (inactive), the GI50 (SF-539) was > 100 µM (inactive) and the GI50 (SK-MEL-28) was > 100 µM (inactive). The GI50 (SK-MEL-2) was > 100 µM (inactive), the GI50 (SK-MEL-5) was 45.1 µM (inactive) and the GI50 (SK-OV-3) was > 100 µM (inactive). For the same molecule, the GI50 (SN12C) was > 100 µM (inactive), the GI50 (SNB-19) was > 100 µM (inactive) and the GI50 (SNB-75) was 49.2 µM (inactive). The GI50 (SW-620) was 53.5 µM (inactive), the GI50 (T47D) was 74 µM (inactive) and the GI50 (TK-10) was > 100 µM (inactive). The GI50 (U-251) was 98.6 µM (inactive), the GI50 (UACC-257) was > 100 µM (inactive) and the GI50 (UO-31) was 77.3 µM (inactive).
With `COCOc1cc(OC)c(Br)cc1C/C(=N/O)C(=O)OC` the GI50 (786-0) was > 100 µM (inactive), the GI50 (A549) was 91.6 µM (inactive) and the GI50 (ACHN) was > 100 µM (inactive). For the same molecule, the GI50 (BT-549) was 70.1 µM (inactive), the GI50 (CAKI-1) was 48.8 µM (inactive) and the GI50 (CCRF-CEM) was 37.8 µM (inactive). The GI50 (COLO 205) was > 100 µM (inactive), the GI50 (DU-145) was > 100 µM (inactive) and the GI50 (EKVX) was 49 µM (inactive). For the same molecule, the GI50 (HCC 2998) was > 100 µM (inactive), the GI50 (HCT-116) was > 100 µM (inactive) and the GI50 (HCT-15) was over 100 µM. The GI50 (HL-60) was 52.7 µM (inactive), the GI50 (HOP-62) was 67.3 µM (inactive) and the GI50 (HT-29) was > 100 µM (inactive). For the same molecule, the GI50 (Hs-578T) was 15.9 µM (inactive), the GI50 (IGROV-1) was 56.4 µM (inactive) and the GI50 (K562) was 49.7 µM (inactive). The GI50 (KM12) was > 100 µM (inactive), the GI50 (LOX IMVI) was 73.5 µM (inactive) and the GI50 (M14) was > 100 µM (inactive). For the same molecule, the GI50 (MCF7) was 95.5 µM (inactive), the GI50 (MDA-MB-231) was 42.2 µM (inactive) and the GI50 (MDA-MB-435) was 29.6 µM (inactive). The GI50 (MDA-N) was 28 µM (inactive), the GI50 (MOLT-4) was 27.5 µM (inactive) and the GI50 (Malme-3M) was 25.5 µM (inactive). The GI50 (NCI-H226) was > 100 µM (inactive), the GI50 (NCI-H23) was 90.4 µM (inactive) and the GI50 (NCI-H460) was 71.9 µM (inactive). The GI50 (NCI-H522) was 37.9 µM (inactive), the GI50 (NCI/ADR-RES) was 34 µM (inactive) and the GI50 (OVCAR-3) was 43.1 µM (inactive). The GI50 (OVCAR-4) was 52.5 µM (inactive), the GI50 (OVCAR-5) was > 100 µM (inactive) and the GI50 (OVCAR-8) was > 100 µM (inactive). For the same molecule, the GI50 (PC-3) was 42.9 µM (inactive), the GI50 (RXF 393) was 28.5 µM (inactive) and the GI50 (SF-268) was 39.8 µM (inactive). For the same molecule, the GI50 (SF-295) was > 100 µM (inactive), the GI50 (SF-539) was > 100 µM (inactive) and the GI50 (SK-MEL-28) was > 100 µM (inactive). The GI50 (SK-MEL-2) was 88.5 µM (inactive), the GI50 (SK-MEL-5) was 67.8 µM (inactive) and the GI50 (SK-OV-3) was > 100 µM (inactive). For the same molecule, the GI50 (SN12C) was > 100 µM (inactive), the GI50 (SNB-19) was > 100 µM (inactive) and the GI50 (SNB-75) was 7.6 µM (inactive). For the same molecule, the GI50 (SR) was 34.7 µM (inactive), the GI50 (SW-620) was > 100 µM (inactive) and the GI50 (T47D) was 15.8 µM (inactive). For the same molecule, the GI50 (TK-10) was 35.1 µM (inactive), the GI50 (U-251) was > 100 µM (inactive) and the GI50 (UACC-257) was 46.6 µM (inactive). For the same molecule, the GI50 (UACC-62) was 40.6 µM (inactive) and the GI50 (UO-31) was 53.7 µM (inactive).
